Test results reported in US7928140B2, “Benzothiazole PI3 kinase modulators for cancer treatment” (Amgen Inc., priority 2007, dated 2011).

Key:
PI3K α = molecular target: T1, PI3K α (Homo sapiens, UniProt P42336); test: In vitro PI3 kinase enzyme assay (alpha), ATP loss, bioluminescence; format: biochemical; conditions: read-out: PI3Kα ATP loss IC50;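 note: purified p110α/p85 heterodimer acting on PtdIns(4,5)P2 at room temperature, remaining ATP read by luminescence, inhibition scaled between compound-free wells with and without enzyme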
T1 construct: Full length p110 subunits of PI3K α, β and δ, N-terminally labeled with polyHis tag; polyHis (N); made in house; host or cells: Sf9 insect cells (baculovirus)
T1 sequence (P42336 whole entry, species assumed): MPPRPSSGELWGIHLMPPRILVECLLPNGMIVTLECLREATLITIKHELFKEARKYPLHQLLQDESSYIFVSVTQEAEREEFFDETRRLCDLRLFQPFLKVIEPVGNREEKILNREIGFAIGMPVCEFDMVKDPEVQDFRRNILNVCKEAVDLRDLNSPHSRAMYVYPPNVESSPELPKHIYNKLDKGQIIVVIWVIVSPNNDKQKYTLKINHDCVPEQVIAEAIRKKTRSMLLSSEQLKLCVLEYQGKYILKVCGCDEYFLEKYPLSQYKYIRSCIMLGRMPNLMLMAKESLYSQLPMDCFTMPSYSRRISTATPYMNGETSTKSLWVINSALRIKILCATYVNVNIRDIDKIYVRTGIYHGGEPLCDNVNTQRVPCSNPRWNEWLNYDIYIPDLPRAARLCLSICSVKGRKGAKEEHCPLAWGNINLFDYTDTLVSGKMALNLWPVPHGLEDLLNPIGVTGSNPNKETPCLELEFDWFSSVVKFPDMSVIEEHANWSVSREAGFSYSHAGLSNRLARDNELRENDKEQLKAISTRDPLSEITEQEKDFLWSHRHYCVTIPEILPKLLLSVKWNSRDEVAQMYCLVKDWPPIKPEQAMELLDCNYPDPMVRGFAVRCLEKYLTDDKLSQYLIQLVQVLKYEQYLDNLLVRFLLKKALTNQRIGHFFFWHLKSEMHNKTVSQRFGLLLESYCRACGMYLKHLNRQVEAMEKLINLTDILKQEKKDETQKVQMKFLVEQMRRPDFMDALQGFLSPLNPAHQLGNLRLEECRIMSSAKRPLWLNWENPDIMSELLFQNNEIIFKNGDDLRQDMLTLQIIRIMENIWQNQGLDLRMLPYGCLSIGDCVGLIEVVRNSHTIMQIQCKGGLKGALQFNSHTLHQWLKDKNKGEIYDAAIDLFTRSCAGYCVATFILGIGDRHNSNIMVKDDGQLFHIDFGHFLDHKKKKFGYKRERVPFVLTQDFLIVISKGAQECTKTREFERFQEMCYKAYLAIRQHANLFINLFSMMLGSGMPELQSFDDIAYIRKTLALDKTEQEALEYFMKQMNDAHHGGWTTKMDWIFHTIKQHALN
T1 sequence (P27986 whole entry partner, species assumed): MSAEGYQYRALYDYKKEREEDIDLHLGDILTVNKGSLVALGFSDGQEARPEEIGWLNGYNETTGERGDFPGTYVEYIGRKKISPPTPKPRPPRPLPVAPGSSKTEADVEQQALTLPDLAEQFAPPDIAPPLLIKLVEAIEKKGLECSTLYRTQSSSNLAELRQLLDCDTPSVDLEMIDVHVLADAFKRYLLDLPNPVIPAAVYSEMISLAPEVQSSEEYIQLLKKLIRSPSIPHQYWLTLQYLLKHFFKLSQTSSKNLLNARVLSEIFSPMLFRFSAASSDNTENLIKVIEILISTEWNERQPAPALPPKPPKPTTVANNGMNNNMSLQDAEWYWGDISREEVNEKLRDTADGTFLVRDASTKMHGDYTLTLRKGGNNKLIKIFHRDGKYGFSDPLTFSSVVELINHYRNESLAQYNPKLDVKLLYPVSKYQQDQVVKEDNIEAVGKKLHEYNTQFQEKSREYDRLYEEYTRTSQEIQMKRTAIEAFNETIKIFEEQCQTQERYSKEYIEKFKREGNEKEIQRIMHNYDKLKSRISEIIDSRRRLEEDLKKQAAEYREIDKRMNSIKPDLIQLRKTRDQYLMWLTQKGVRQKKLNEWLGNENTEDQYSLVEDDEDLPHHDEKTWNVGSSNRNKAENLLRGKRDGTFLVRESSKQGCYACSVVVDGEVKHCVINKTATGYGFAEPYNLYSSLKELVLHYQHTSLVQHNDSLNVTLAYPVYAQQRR
Method: Full length p110 subunits of PI3K α, β and δ, N-terminally labeled with polyHis tag, were co-expressed with p85 in baculovirus expression vectors in sf9 insect cells. P110/p85 heterodimers were purified by sequential Ni-NTA, Q-HP, and Superdex-100 chromatography. Purified α, β and δ isozymes were stored at −20° C. in 20 mM Tris, pH 8, 0.2M NaCl, 50% glycerol, 5 mM DTT, 2 mM Na cholate.
PI3K enzyme assays (alpha, beta, delta and gamma) were performed in 25 mL with the above final concentrations of components in white polypropylene plates (Costar catalogue #3355). Phosphatidyl inositol phosphoacceptor, PtdIns(4,5)P2 (eg. P4508) was obtained from Echelon Biosciences. The ATPase activity of the alpha and gamma isozymes was not greatly stimulated by PtdIns(4,5)P2 under these conditions and was therefore omitted from the assay of these isozymes. Test compounds were dissolved in DMSO and diluted with three-fold serial dilutions. The compound in DMSO (1 μL) was added per test well, and the inhibition relative to reactions containing no compound, with and without enzyme was determined. After assay incubation at RT, the reaction was stopped and residual ATP determined by addition of an equal volume of a commercial ATP bioluminescence kit (Perkin Elmer EasyLite) according to the manufacturer's instructions, and detected using an Analyst GT luminometer.

PI3K β = molecular target: T2, PI3K β (Homo sapiens, UniProt P42338); test: In vitro PI3 kinase enzyme assay (beta), ATP loss, bioluminescence; format: biochemical; conditions: read-out: PI3Kβ ATP loss IC50;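 note: purified p110β/p85 heterodimer with PtdIns(4,5)P2 as acceptor, incubated at room temperature, leftover ATP read by luminescence, inhibition scaled to compound-free wells with and without enzyme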
T2 construct: Full length p110 subunits of PI3K α, β and δ, N-terminally labeled with polyHis tag; polyHis (N); made in house; host or cells: Sf9 insect cells (baculovirus)
T2 sequence (P42338 whole entry): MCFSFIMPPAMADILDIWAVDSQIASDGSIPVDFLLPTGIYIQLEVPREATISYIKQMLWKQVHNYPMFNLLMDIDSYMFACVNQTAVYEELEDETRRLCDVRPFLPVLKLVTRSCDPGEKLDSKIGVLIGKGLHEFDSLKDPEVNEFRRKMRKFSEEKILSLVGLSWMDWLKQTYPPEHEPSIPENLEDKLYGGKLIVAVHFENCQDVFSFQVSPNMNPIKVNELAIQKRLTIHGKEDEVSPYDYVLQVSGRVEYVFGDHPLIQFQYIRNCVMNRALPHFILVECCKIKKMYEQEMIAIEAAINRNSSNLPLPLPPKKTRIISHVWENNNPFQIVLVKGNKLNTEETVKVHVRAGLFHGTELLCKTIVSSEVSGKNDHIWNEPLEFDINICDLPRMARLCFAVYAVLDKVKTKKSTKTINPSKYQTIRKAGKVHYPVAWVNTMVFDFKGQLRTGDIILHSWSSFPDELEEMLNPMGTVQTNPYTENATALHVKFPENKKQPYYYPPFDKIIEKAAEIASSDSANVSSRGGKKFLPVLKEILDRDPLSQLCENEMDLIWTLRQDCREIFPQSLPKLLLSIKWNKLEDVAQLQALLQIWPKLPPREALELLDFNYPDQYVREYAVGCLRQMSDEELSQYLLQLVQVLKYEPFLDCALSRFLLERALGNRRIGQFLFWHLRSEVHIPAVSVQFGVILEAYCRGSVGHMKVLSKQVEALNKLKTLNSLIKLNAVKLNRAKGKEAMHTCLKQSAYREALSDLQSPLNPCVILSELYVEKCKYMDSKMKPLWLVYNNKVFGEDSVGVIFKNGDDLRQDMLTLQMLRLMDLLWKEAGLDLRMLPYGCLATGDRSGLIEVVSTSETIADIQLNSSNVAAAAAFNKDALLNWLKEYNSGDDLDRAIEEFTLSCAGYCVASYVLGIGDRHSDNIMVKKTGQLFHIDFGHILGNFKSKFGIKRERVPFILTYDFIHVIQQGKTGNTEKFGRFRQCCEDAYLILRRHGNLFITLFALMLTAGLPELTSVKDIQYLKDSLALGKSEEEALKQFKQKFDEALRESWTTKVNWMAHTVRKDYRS
T2 sequence (P27986 whole entry partner): as the sequence (P27986 whole entry partner, species assumed) above

Structure (SMILES): CC(=O)Nc1nc2ccc(-c3ccnc(OCCCO)n3)cc2s1 [Example 102, N-(6-(2-(3-hydroxypropoxy)-4-pyrimidinyl)-1,3-benzothiazol-2-yl)acetamide]
- IC50 (PI3K α): 664 nM
- IC50 (PI3K β): > 40000 nM

Structure (SMILES): CC(=O)Nc1ccc(Sc2nccc(-c3ccc4nc(NC(C)=O)sc4c3)n2)cc1 [Example 29, N-(4-((4-(2-(acetylamino)-1,3-benzothiazol-6-yl)-2-pyrimidinyl)sulfanyl)phenyl)acetamide]
- IC50 (PI3K α): 333 nM
- IC50 (PI3K β): 2400 nM

Structure (SMILES): CC(=O)Nc1ccc(S(=O)(=O)Nc2nccc(-c3ccc4nc(NC(C)=O)sc4c3)n2)cc1 [Example 86, N-(4-((4-(2-(acetylamino)-1,3-benzothiazol-6-yl)-2-pyrimidinyl)sulfamoyl)phenyl)acetamide]
- IC50 (PI3K α): 319 nM
- IC50 (PI3K β): 10200 nM

Structure (SMILES): CC(=O)Nc1nc2ccc(-c3ccnc(O)n3)cc2s1 [Example 53, N-(6-(2-hydroxy-4-pyrimidinyl)-1,3-benzothiazol-2-yl)acetamide]
- IC50 (PI3K α): 7980 nM
- IC50 (PI3K β): > 40000 nM

Structure (SMILES): CC(=O)Nc1nc2ccc(-c3ccnc(N(C)S(=O)(=O)c4ccc(F)cc4)n3)cc2s1 [Example 203, N-(6-(2-(4-fluoro-N-methylphenylsulfonamido)pyrimidin-4-yl)benzo[d]thiazol-2-yl)acetamide]
- IC50 (PI3K α): 324 nM
- IC50 (PI3K β): 930 nM

Structure (SMILES): COc1cc(C)c(-c2ccc3nc(NC(C)=O)sc3c2)cn1 [Example 244, N-(6-(6-methoxy-4-methylpyridin-3-yl)benzo[d]thiazol-2-yl)acetamide]
- IC50 (PI3K α): 688 nM
- IC50 (PI3K β): 2990 nM

Structure (SMILES): CC(=O)Nc1nc2ccc(-c3csc(S(=O)(=O)c4ccccc4)n3)cc2s1 [Example 64, N-(6-(2-(phenylsulfonyl)thiazol-4-yl)benzo[d]thiazol-2-yl)acetamide]
- IC50 (PI3K α): 846 nM
- IC50 (PI3K β): > 40000 nM

Structure (SMILES): CC(=O)Nc1nc2ccc(-c3ccnc(Sc4cccc(Cl)c4)n3)cc2s1 [Example 140, N-(6-(2-((3-chlorophenyl)sulfanyl)-4-pyrimidinyl)-1,3-benzothiazol-2-yl)acetamide]
- IC50 (PI3K α): 83.6 nM
- IC50 (PI3K β): 134 nM

Structure (SMILES): CC(=O)Nc1nc2ccc(-c3ccnc(OCc4ccc5[nH]ccc5c4)n3)cc2s1 [Example 24, N-(6-(2-(1H-indol-5-ylmethoxy)-4-pyrimidinyl)-1,3-benzothiazol-2-yl)acetamide]
- IC50 (PI3K α): 8030 nM
- IC50 (PI3K β): 8860 nM

Structure (SMILES): CC(=O)Nc1nc2ccc(-c3ccnc(Sc4ccc(C)cc4C)n3)cc2s1 [Example 122, N-(6-(2-((2,4-dimethylphenyl)sulfanyl)-4-pyrimidinyl)-1,3-benzothiazol-2-yl)acetamide]
- IC50 (PI3K α): 19.6 nM
- IC50 (PI3K β): 260 nM

Structure (SMILES): CC(=O)Nc1nc2ccc(-c3cnc4c(c3)NC(C)(C)N4C)cc2s1 [Example 157, N-(6-(2,2,3-trimethyl-2,3-dihydro-1H-imidazo[4,5-b]pyridin-6-yl)benzo[d]thiazol-2-yl)acetamide]
- IC50 (PI3K α): 664 nM
- IC50 (PI3K β): > 40000 nM

Structure (SMILES): CC(=O)Nc1nc2ccc(-c3csc(S(=O)(=O)c4ccc(F)cc4)n3)cc2s1 [Example 97, N-(6-(2-(4-Fluorophenylsulfonyl)thiazol-4-yl)benzo[d]thiazol-2-yl)acetamide]
- IC50 (PI3K α): 17300 nM
- IC50 (PI3K β): 28000 nM

Structure (SMILES): O=C(Nc1nc2ccc(-c3ccnc(OCc4ccccc4)n3)cc2s1)c1ccccc1 [Example 58, N-(6-(2-(benzyloxy)-4-pyrimidinyl)-1,3-benzothiazol-2-yl)benzamide]
- IC50 (PI3K α): > 40000 nM
- IC50 (PI3K β): 3930 nM

Structure (SMILES): CC(=O)Nc1nc2ccc(-c3ccnc(Cc4ccccc4)n3)cc2s1 [Example 13, N-(6-(2-Benzylpyrimidin-4-yl)benzo[d]thiazol-2-yl)acetamide]
- IC50 (PI3K α): 4480 nM
- IC50 (PI3K β): > 40000 nM

Structure (SMILES): Oc1cc(-c2ccc3ncsc3c2)cnc1Cl [Example 334, 5-(1,3-benzothiazol-6-yl)-2-chloro-3-pyridinol]
- IC50 (PI3K α): 116 nM
- IC50 (PI3K β): 1350 nM

Structure (SMILES): CC(=O)Nc1nc2ccc(-c3ccnc(NS(=O)(=O)c4cccnc4)n3)cc2s1 [Example 79, N-(6-(2-(pyridine-5-sulfonamido)pyrimidin-4-yl)benzo[d]thiazol-2-yl)acetamide]
- IC50 (PI3K α): 60.6 nM
- IC50 (PI3K β): 849 nM

Structure (SMILES): CC(=O)Nc1nc2ccc(-c3ccnc(N(C)C)n3)cc2s1 [Example 52, N-(6-(2-(dimethylamino)-4-pyrimidinyl)-1,3-benzothiazol-2-yl)acetamide]
- IC50 (PI3K α): 2580 nM
- IC50 (PI3K β): > 40000 nM

Structure (SMILES): CC(C)(C)Nc1cc(-c2ccc3nc(N)sc3c2)cnc1Cl [Example 315, 6-(5-(tert-butylamino)-6-chloro-3-pyridinyl)-1,3-benzothiazol-2-amine]
- IC50 (PI3K α): 965 nM
- IC50 (PI3K β): 2940 nM

Structure (SMILES): CC(=O)Nc1nc2ccc(-c3ccnc(Sc4ccccc4C(C)(C)C)n3)cc2s1 [Example 30, N-(6-(2-((2-tert-butylphenyl)sulfanyl)-4-pyrimidinyl)-1,3-benzothiazol-2-yl)acetamide]
- IC50 (PI3K α): 908 nM
- IC50 (PI3K β): 1420 nM

Structure (SMILES): CC(=O)Nc1nc2ccc(-c3ccnc(N4CCOCC4)n3)cc2s1 [Example 160, N-(6-(2-(4-morpholinyl)-4-pyrimidinyl)-1,3-benzothiazol-2-yl)acetamide]
- IC50 (PI3K α): 2740 nM
- IC50 (PI3K β): 18900 nM

Structure (SMILES): CC(=O)Nc1nc2ccc(-c3cncc(OCCN4CCCCCC4)c3)cc2s1 [Example 234, N-(6-(5-(2-(azepan-1-yl)ethoxy)pyridin-3-yl)benzo[d]thiazol-2-yl)acetamide]
- IC50 (PI3K α): 2490 nM
- IC50 (PI3K β): 9980 nM

Structure (SMILES): CC(=O)Nc1nc2ccc(-c3cncc(N(C)S(=O)(=O)c4ccc(C(F)(F)F)cc4)c3)cc2s1 [Example 218, N-(6-(5-(N-methyl-4-(trifluoromethyl)phenylsulfonamido)pyridin-3-yl)benzo[d]thiazol-2-yl)acetamide]
- IC50 (PI3K α): 1050 nM
- IC50 (PI3K β): 8270 nM

Structure (SMILES): CC(C)(O)C(=O)Nc1nc2ccc(-c3ccnc(OCc4ccccc4)n3)cc2s1 [Example 55, N-(6-(2-(benzyloxy)-4-pyrimidinyl)-1,3-benzothiazol-2-yl)-2-hydroxy-2-methylpropanamide]
- IC50 (PI3K α): 26700 nM
- IC50 (PI3K β): 7750 nM

Structure (SMILES): CC(=O)Nc1nc2ccc(-c3csc(S(=O)(=O)c4ccccc4F)n3)cc2s1 [Example 63, N-(6-(2-(2-fluorophenylsulfonyl)thiazol-4-yl)benzo[d]thiazol-2-yl)acetamide]
- IC50 (PI3K α): 556 nM
- IC50 (PI3K β): 4690 nM

Structure (SMILES): CC(=O)Nc1nc2ccc(-c3ccnc(Sc4ccc(Br)cc4)n3)cc2s1 [Example 139, N-(6-(2-((4-bromophenyl)sulfanyl)-4-pyrimidinyl)-1,3-benzothiazol-2-yl)acetamide]
- IC50 (PI3K α): 80.7 nM
- IC50 (PI3K β): 1050 nM

Structure (SMILES): CC(=O)Nc1nc2ccc(-c3ccnc(OCCc4cccnc4)n3)cc2s1 [Example 18, N-(6-(2-(2-(3-pyridinyl)ethoxy)-4-pyrimidinyl)-1,3-benzothiazol-2-yl)acetamide]
- IC50 (PI3K α): 1100 nM
- IC50 (PI3K β): 32200 nM

Structure (SMILES): CC(=O)Nc1nc2ccc(-c3cnc(OCCN(C)C)c(NC(C)C)c3)cc2s1 [Example 159, N-(6-(6-(2-(dimethylamino)ethoxy)-5-(isopropylamino)pyridin-3-yl)benzo[d]thiazol-2-yl)acetamide]
- IC50 (PI3K α): 914 nM
- IC50 (PI3K β): 3740 nM

Structure (SMILES): CC(=O)Nc1nc2ccc(-c3ccnc(OCCN4CCOCC4)n3)cc2s1 [Example 11]
- IC50 (PI3K β): > 40000 nM

Structure (SMILES): CNc1ncc(-c2ccc3nc(NC(C)=O)sc3c2)cc1N [Example 152, N-(6-(5-amino-6-(methylamino)pyridin-3-yl)benzo[d]thiazol-2-yl)acetamide]
- IC50 (PI3K α): 275 nM
- IC50 (PI3K β): 864 nM

Structure (SMILES): CC(=O)Nc1nc2ccc(-c3ccnc(OCCCN(C)C)n3)cc2s1 [Example 8]
- IC50 (PI3K α): 11100 nM
- IC50 (PI3K β): > 40000 nM

Structure (SMILES): COc1ccc(-c2cccc3nc(NC(C)=O)sc23)cc1 [Example 95, N-(7-(4-Methoxyphenyl)benzo[d]thiazol-2-yl)acetamide]
- IC50 (PI3K α): 6540 nM
- IC50 (PI3K β): > 40000 nM

Structure (SMILES): CC(=O)Nc1nc2ccc(-c3cnc(C)c(N)c3)cc2s1 [Example 142, N-(6-(5-amino-6-methyl-3-pyridinyl)-1,3-benzothiazol-2-yl)acetamide]
- IC50 (PI3K α): 111 nM
- IC50 (PI3K β): > 40000 nM

Structure (SMILES): CC(=O)Nc1nc2ccc(-c3ccnc(Cl)n3)cc2s1 [Example 105, N-(6-(2-chloro-4-pyrimidinyl)-1,3-benzothiazol-2-yl)acetamide]
- IC50 (PI3K β): 8270 nM

Structure (SMILES): COc1ccccc1Sc1nccc(-c2ccc3nc(NC(C)=O)sc3c2)n1 [Example 28, N-(6-(2-((2-methoxyphenyl)sulfanyl)-4-pyrimidinyl)-1,3-benzothiazol-2-yl)acetamide]
- IC50 (PI3K β): 491 nM

Structure (SMILES): CC(=O)Nc1nc2ccc(-c3cccc(N)c3)nc2s1 [Example 156, N-(5-(3-aminophenyl)thiazolo[5,4-b]pyridin-2-yl)acetamide]
- IC50 (PI3K α): 642 nM

Structure (SMILES): CC(=O)Nc1nc2ccc(-c3ccnc(Oc4ccccc4)n3)cc2s1 [Example 33, N-(6-(2-phenoxy-4-pyrimidinyl)-1,3-benzothiazol-2-yl)acetamide]
- IC50 (PI3K β): 5970 nM

Structure (SMILES): COc1ccc(S(=O)(=O)Nc2cccc(-c3ccc4nc(NC(C)=O)sc4c3)c2)cc1 [Example 260, N-(6-(3-(4-methoxyphenylsulfonamido)phenyl)benzo[d]thiazol-2-yl)acetamide]
- IC50 (PI3K β): 413 nM

Structure (SMILES): COc1ccc(COc2nccc(-c3ccc4nc(NC(C)=O)sc4c3)n2)cc1 [Example 38, N-(6-(2-((4-methoxybenzyl)oxy)-4-pyrimidinyl)-1,3-benzothiazol-2-yl)acetamide]
- IC50 (PI3K α): 126 nM

Structure (SMILES): CC(=O)Nc1nc2ccc(-c3ccnc(Sc4ccccc4)n3)cc2s1 [Example 21, N-(6-(2-(phenylsulfanyl)-4-pyrimidinyl)-1,3-benzothiazol-2-yl)acetamide]
- IC50 (PI3K β): 309 nM

Structure (SMILES): COCCCOc1nccc(-c2ccc3nc(NC(C)=O)sc3c2)n1 [Example 5, N-(6-(2-(3-methoxypropoxy)-4-pyrimidinyl)-1,3-benzothiazol-2-yl)acetamide]
- IC50 (PI3K β): > 40000 nM

Structure (SMILES): CC(=O)Nc1nc2ccc(-c3ccnc(CCc4ccccc4)n3)cc2s1 [Example 15, N-(6-(2-(2-phenylethyl)-4-pyrimidinyl)-1,3-benzothiazol-2-yl)acetamide]
- IC50 (PI3K β): 6470 nM
